The compounds below were run against T1, ALDH1A1 (Homo sapiens, UniProt P00352) (assay: Selectivity biochemical assay, NAD(P)H-Glo Detection System).
T1 construct: His-tag; made in house; host or cells: E. coli Rosetta (DE3)
T1 sequence (P00352 1-501): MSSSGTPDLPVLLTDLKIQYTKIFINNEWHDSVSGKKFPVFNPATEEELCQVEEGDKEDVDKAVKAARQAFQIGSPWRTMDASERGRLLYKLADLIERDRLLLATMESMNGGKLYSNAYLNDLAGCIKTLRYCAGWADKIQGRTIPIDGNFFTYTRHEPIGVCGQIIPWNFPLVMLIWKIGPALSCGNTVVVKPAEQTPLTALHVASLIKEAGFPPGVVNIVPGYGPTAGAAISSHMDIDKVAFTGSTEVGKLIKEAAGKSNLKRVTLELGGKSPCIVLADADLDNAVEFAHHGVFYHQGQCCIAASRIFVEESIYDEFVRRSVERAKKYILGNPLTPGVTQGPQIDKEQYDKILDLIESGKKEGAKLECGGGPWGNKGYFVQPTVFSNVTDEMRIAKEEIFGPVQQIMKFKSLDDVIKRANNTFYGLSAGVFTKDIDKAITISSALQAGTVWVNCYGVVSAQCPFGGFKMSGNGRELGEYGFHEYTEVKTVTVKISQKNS
Method in brief: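 Recombinant full-length His-tagged human enzymes expressed in E. coli were pre-incubated 30 min at room temperature with compound (10-point, 3-fold series; top 20 μM for ALDH1A3, 250 μM for ALDH1A1/1A2). Propionaldehyde and NAD were then added at Km; NADH was read by NAD(P)H-Glo luminescence. Buffer: Tris (pH 7.6 for 1A1/1A2, 9.0 for 1A3), 1 mM TCEP, 0.01% Tween-20.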

**Q.** For Cc1nc(C2CCCN2CCOc2ccc3c(c2)CCC(=O)N3)cs1 (centres unmarked) [ALDHI-2033, 6-[2-[2-(2-methylthiazol-4-yl)pyrrolidin-1-yl]ethoxy]-3,4-dihydro-1H-quinolin-2-one], which IC50 is on record?
**A.** ≥ 100 µM

**Q.** Which IC50 does the source give for Cc1ccc(C2CCCN2CCOc2ccc3c(c2)CCC(=O)N3)cn1 (centres unmarked) [ALDHI-2030, 6-[2-[2-(6-methyl-3-pyridyl)pyrrolidin-1-yl]ethoxy]-3,4-dihydro-1H-quinolin-2-one] here?
**A.** ≥ 100 µM

**Q.** Which IC50 does the source give for O=C1CCc2cc(OCCN3CCCCC3c3cccc(F)c3)ccc2N1 (centres unmarked) [ALDHI-2038, 6-[2-[2-(3-fluorophenyl)-1-piperidyl]ethoxy]-3,4-dihydro-1H-quinolin-2-one] here?
**A.** 10 to 100 µM

**Q.** How did the IC50 turn out when C[C@H](c1ccccc1)N(CCO)CCOc1ccc2c(c1)CCC(=O)N2 [ALDHI-3006, 6-[2-[2-hydroxyethyl-[(1R)-1-phenylethyl]amino]ethoxy]-3,4-dihydro-1H-quinolin-2-one] was run?
**A.** 10 to 100 µM

**Q.** For O=C1CCc2cc(OCCN3CCCC3c3cc(F)cc(F)c3)ccc2N1 (centres unmarked) [ALDHI-2032, 6-[2-[2-(3,5-difluorophenyl)pyrrolidin-1-yl]ethoxy]-3,4-dihydro-1H-quinolin-2-one], which IC50 is on record?
**A.** 10 to 100 µM

**Q.** Which IC50 does the source give for O=C1CCc2cc(OCCN3CC(F)CC3c3cccc(F)c3)ccc2N1 (centres unmarked) [ALDHI-2052, 6-[2-[4-fluoro-2-(3-fluorophenyl)pyrrolidin-1-yl]ethoxy]-3,4-dihydro-1H-quinolin-2-one] here?
**A.** ≥ 100 µM

**Q.** For CN(CCOc1ccc2c(c1)CCC(=O)N2)C(=O)c1cccnc1 [ALDHI-3013, N-methyl-N-[2-[(2-oxo-3,4-dihydro-1H-quinolin-6-yl)oxy]ethyl]pyridine-3-carboxamide], which IC50 is on record?
**A.** ≥ 100 µM

**Q.** For O=C1CCc2cc(OCCN3CCOCC3c3cccc(F)c3)ccc2N1 (centres unmarked) [ALDHI-2031, 6-[2-[3-(3-fluorophenyl)morpholin-4-yl]ethoxy]-3,4-dihydro-1H-quinolin-2-one], which IC50 is on record?
**A.** ≥ 100 µM

**Q.** Which IC50 does the source give for O=C1COc2cc(OCCN3CCCC3c3cccc(F)c3)ccc2N1 (centres unmarked) [ALDHI-2009, 7-[2-[2-(3-fluorophenyl)pyrrolidin-1-yl]ethoxy]-4H-1,4-benzoxazin-3-one] here?
**A.** ≥ 100 µM

**Q.** Which IC50 does the source give for O=C1CCc2cc(OCCN3C(=O)CCC3c3ccccc3)ccc2N1 (centres unmarked) [ALDHI-2051, 6-[2-(2-oxo-5-phenyl-pyrrolidin-1-yl)ethoxy]-3,4-dihydro-1H-quinolin-2-one] here?
**A.** ≥ 100 µM

**Q.** For CCC1Oc2cc(OCCN3CCCC3c3cccc(F)c3)ccc2NC1=O (centres unmarked) [ALDHI-2045, 2-ethyl-7-[2-[2-(3-fluorophenyl)pyrrolidin-1-yl]ethoxy]-4H-1,4-benzoxazin-3-one], which IC50 is on record?
**A.** ≥ 100 µM

**Q.** For O=C1CCc2cc(OCCN3CCCC3c3ccccn3)ccc2N1 (centres unmarked) [ALDHI-2006, 6-[2-[2-(2-pyridyl)pyrrolidin-1-yl]ethoxy]-3,4-dihydro-1H-quinolin-2-one], which IC50 is on record?
**A.** ≥ 100 µM

**Q.** For CC1(c2ccccc2)COCCN1CCOc1ccc2c(c1)CCC(=O)N2 (centres unmarked) [ALDHI-2040, 6-[2-(3-methyl-3-phenyl-morpholin-4-yl)ethoxy]-3,4-dihydro-1H-quinolin-2-one], which IC50 is on record?
**A.** ≥ 100 µM

**Q.** Cn1cc(C2CCCN2CCOc2ccc3c(c2)SCC(=O)N3)cn1 (centres unmarked) [ALDHI-2026, 7-[2-[2-(1-methylpyrazol-4-yl)pyrrolidin-1-yl]ethoxy]-4H-1,4-benzothiazin-3-one] was tested. Which IC50 did it give?
**A.** ≥ 100 µM

**Q.** For O=C1CCc2cc(NC(=O)c3c[nH]nc3-c3cccc(F)c3)ccc2N1 [ALDHI-1006, 3-(3-fluorophenyl)-N-(2-oxo-1,2,3,4-tetrahydroquinolin-6-yl)-1H-pyrazole-4-carboxamide], which IC50 is on record?
**A.** ≥ 100 µM

**Q.** Which IC50 does the source give for O=C1CCc2cc(NC(=O)c3scnc3-c3ccccc3Cl)ccc2N1 [ALDHI-1012, 4-(2-chlorophenyl)-N-(2-oxo-3,4-dihydro-1H-quinolin-6-yl)thiazole-5-carboxamide] here?
**A.** 10 to 100 µM

**Q.** How did the IC50 turn out when O=C1CCc2cc(OCCN3CCC[C@H]3c3cccc(F)c3)ccc2N1 [ALDHI-2018, 6-[2-[(2S)-2-(3-fluorophenyl)pyrrolidin-1-yl]ethoxy]-3,4-dihydro-1H-quinolin-2-one] was run?
**A.** ≥ 100 µM

**Q.** How did the IC50 turn out when O=C1CCc2cc(NC(=O)c3ncsc3-c3cccnc3)ccc2N1 [ALDHI-1010, N-(2-oxo-3,4-dihydro-1H-quinolin-6-yl)-5-(3-pyridyl)thiazole-4-carboxamide] was run?
**A.** ≥ 100 µM

**Q.** O=C1CCCc2cc(OCCN3CCCC3c3cccc(F)c3)ccc2N1 (centres unmarked) [ALDHI-2020, 7-[2-[2-(3-fluorophenyl)pyrrolidin-1-yl]ethoxy]-1,3,4,5-tetrahydro-1-benzazepin-2-one] was tested. Which IC50 did it give?
**A.** ≥ 100 µM

**Q.** Which IC50 does the source give for O=C1CCc2cc(OCCN3CCCC3c3ccccc3F)ccc2N1 (centres unmarked) [ALDHI-2002, 6-[2-[2-(2-fluorophenyl)pyrrolidin-1-yl]ethoxy]-3,4-dihydro-1H-quinolin-2-one] here?
**A.** ≥ 100 µM

**Q.** Which IC50 does the source give for O=C1CCc2cc(OCCN3CCCC3c3ccccc3)ccc2N1 (centres unmarked) [ALDHI-2019, 6-[2-(2-phenylpyrrolidin-1-yl)ethoxy]-3,4-dihydro-1H-quinolin-2-one] here?
**A.** ≥ 100 µM

**Q.** Cc1cccc(C2CCCN2CCOc2ccc3c(c2)CCC(=O)N3)c1 (centres unmarked) [ALDHI-2011, 6-[2-[2-(m-tolyl)pyrrolidin-1-yl]ethoxy]-3,4-dihydro-1H-quinolin-2-one] was tested. Which IC50 did it give?
**A.** ≥ 100 µM

**Q.** How did the IC50 turn out when O=C1CCc2cc(NC(=O)c3sccc3-c3cccc(F)c3)ccc2N1 [ALDHI-1022, 3-(3-fluorophenyl)-N-(2-oxo-3,4-dihydro-1H-quinolin-6-yl)thiophene-2-carboxamide] was run?
**A.** 10 to 100 µM

**Q.** How did the IC50 turn out when O=c1ccc2cc(OCCN3CCCC3c3cccc(F)c3)ccc2[nH]1 (centres unmarked) [ALDHI-2022, 6-[2-[2-(3-fluorophenyl)pyrrolidin-1-yl]ethoxy]-1H-quinolin-2-one] was run?
**A.** ≥ 100 µM

**Q.** CN(CCOc1ccc2c(c1)CCC(=O)N2)Cc1cccc(F)c1 [ALDHI-3001, 6-[2-[(3-fluorophenyl)methyl-methyl-amino]ethoxy]-3,4-dihydro-1H-quinolin-2-one] was tested. Which IC50 did it give?
**A.** ≥ 100 µM

**Q.** How did the IC50 turn out when O=C1CCc2cc(OCCN3CCC3c3cccc(F)c3)ccc2N1 (centres unmarked) [ALDHI-2021, 6-[2-[2-(3-fluorophenyl)azetidin-1-yl]ethoxy]-3,4-dihydro-1H-quinolin-2-one] was run?
**A.** ≥ 100 µM

**Q.** Which IC50 does the source give for O=C1CCc2cc(OCCn3nccc3-c3cccc(F)c3)ccc2N1 [ALDHI-2023, 6-[2-[5-(3-fluorophenyl)pyrazol-1-yl]ethoxy]-3,4-dihydro-1H-quinolin-2-one] here?
**A.** ≥ 100 µM

**Q.** Which IC50 does the source give for O=C1CCc2cc(NC(=O)c3ccccc3-c3cccc(F)c3)ccc2N1 [ALDHI-1007, 3′-fluoro-N-(2-oxo-1,2,3,4-tetrahydroquinolin-6-yl)-[1,1′-biphenyl]-2-carboxamide] here?
**A.** ≥ 100 µM

**Q.** With O=C1CCc2cc(OCCN(CCO)Cc3cccc(F)c3)ccc2N1 [ALDHI-3002, 6-[2-[(3-fluorophenyl)methyl-(2-hydroxyethyl)amino]ethoxy]-3,4-dihydro-1H-quinolin-2-one] as the compound, how does the IC50 read?
**A.** ≥ 100 µM

**Q.** How did the IC50 turn out when O=C1CCc2cc(OCCN3CCC[C@@H]3c3cccc(F)c3)ccc2N1 [ALDHI-2007, 6-[2-[(2R)-2-(3-fluorophenyl)pyrrolidin-1-yl]ethoxy]-3,4-dihydro-1H-quinolin-2-one] was run?
**A.** ≥ 100 µM

**Q.** For CN(C)c1nc(-c2cccc(F)c2)c(C(=O)Nc2ccc3c(c2)CCC(=O)N3)s1 [ALDHI-1002, 2-(dimethylamino)-4-(3-fluorophenyl)-N-(2-oxo-3,4-dihydro-1H-quinolin-6-yl)thiazole-5-carboxamide], which IC50 is on record?
**A.** ≥ 100 µM

**Q.** CCn1cc(C2CCCN2CCOc2ccc3c(c2)CCC(=O)N3)cn1 (centres unmarked) [ALDHI-2016, 6-[2-[2-(1-ethylpyrazol-4-yl)pyrrolidin-1-yl]ethoxy]-3,4-dihydro-1H-quinolin-2-one] was tested. Which IC50 did it give?
**A.** ≥ 100 µM
